Measurements as given in ChEMBL document CHEMBL2074461, “Functional characteristics and tissue distribution pattern of organic cation transporter 2 (OCTN2), an organic cation/carnitine transporter” (J Pharmacol Exp Ther, 1999).

How the values were obtained:
[1] = molecular target: T1, Organic cation/carnitine transporter 2 (Rattus norvegicus, UniProt O70594); assay: TP_TRANSPORTER: inhibition of TEA uptake (TEA: 20 uM, MPTP: 2500 uM) in OCTN2-expressing HRPE cells; assay type: functional, cell-based; settings: human
T1 sequence (O70594 whole entry): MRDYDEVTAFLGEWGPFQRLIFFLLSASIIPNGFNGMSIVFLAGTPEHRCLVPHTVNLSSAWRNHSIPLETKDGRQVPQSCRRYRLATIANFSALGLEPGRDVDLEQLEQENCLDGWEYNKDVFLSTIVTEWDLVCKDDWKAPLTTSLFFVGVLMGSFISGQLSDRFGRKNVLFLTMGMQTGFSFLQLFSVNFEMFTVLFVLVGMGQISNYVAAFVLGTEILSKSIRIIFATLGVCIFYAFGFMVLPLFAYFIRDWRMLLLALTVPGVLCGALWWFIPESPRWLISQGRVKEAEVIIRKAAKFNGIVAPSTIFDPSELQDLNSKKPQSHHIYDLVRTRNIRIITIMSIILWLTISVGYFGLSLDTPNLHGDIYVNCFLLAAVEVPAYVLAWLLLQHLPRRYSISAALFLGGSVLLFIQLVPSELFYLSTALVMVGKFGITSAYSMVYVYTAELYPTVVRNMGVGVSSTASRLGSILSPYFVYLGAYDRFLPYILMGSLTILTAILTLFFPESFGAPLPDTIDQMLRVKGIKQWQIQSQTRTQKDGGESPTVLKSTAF

[2] = molecular target: T2, OCTN2 (organic cation/carnitine transporter 2) (Rattus norvegicus, UniProt O70594); assay: (§1) TP_TRANSPORTER: inhibition of Carnitine uptake (Carnitine: 0.025 uM, MPTP: 2000 uM) in OCTN2-expressing HRPE cells; assay type: functional, cell-based; design: scale not given: the % may be the effect or the level left; settings: human, HRPE cells expressing OCTN2, probe carnitine (0.025 uM); read-out: Activity
T2 sequence (O70594 whole entry): T1 sequence (O70594 whole entry)

[3] = molecular target: T3, OCTN2 (organic cation/carnitine transporter 2) (Homo sapiens, UniProt O76082); assay: as §1; assay type: functional, cell-based; design: scale not given: the % may be the effect or the level left; settings: HRPE cells expressing OCTN2, probe carnitine (0.025 uM), read-out: Activity
T3 sequence (O76082 whole entry): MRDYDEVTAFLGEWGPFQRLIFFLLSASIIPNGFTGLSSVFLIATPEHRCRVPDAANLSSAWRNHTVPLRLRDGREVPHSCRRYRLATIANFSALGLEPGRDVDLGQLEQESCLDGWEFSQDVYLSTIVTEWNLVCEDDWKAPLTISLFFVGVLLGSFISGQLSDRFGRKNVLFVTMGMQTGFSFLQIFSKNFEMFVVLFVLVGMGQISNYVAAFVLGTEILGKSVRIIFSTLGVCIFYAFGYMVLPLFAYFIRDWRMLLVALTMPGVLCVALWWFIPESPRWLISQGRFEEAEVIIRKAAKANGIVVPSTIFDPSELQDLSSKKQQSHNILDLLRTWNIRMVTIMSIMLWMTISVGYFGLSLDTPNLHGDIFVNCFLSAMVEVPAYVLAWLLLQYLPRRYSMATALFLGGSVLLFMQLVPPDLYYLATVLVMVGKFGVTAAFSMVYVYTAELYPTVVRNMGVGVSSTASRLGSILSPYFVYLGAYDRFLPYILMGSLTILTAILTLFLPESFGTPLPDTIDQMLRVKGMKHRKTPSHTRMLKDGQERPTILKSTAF

[4] = molecular target: T1, Organic cation/carnitine transporter 2; assay: TP_TRANSPORTER: inhibition of TEA uptake (TEA: 20 uM, MPP+: 2500 uM) in OCTN2-expressing HRPE cells; assay type: functional, cell-based; settings: human
[5] = molecular target: T2, OCTN2 (organic cation/carnitine transporter 2); assay: TP_TRANSPORTER: inhibition of Carnitine uptake (Carnitine: 0.025 uM, Acetyl-L-carnitine: 500 uM) in OCTN2-expressing HRPE cells; assay type: functional, cell-based; design: scale not given: the % may be the effect or the level left; settings: human, HRPE cells expressing OCTN2, probe carnitine (0.025 uM); read-out: Activity
[6] = molecular target: T1, Organic cation/carnitine transporter 2; assay: (§2) TP_TRANSPORTER: uptake in OCTN2-expressing HRPE cells; assay type: functional, cell-based; settings: human
[7] = molecular target: T1, Organic cation/carnitine transporter 2; assay: TP_TRANSPORTER: inhibition of TEA uptake (TEA: 20 uM, Amphetamine: 2500 uM) in OCTN2-expressing HRPE cells; assay type: functional, cell-based; settings: human
[8] = molecular target: T2, OCTN2 (organic cation/carnitine transporter 2); assay: TP_TRANSPORTER: inhibition of Carnitine uptake (Carnitine: 0.025 uM, Betaine: 500 uM) in OCTN2-expressing HRPE cells; assay type: functional, cell-based; design: scale not given: the % may be the effect or the level left; settings: human, HRPE cells expressing OCTN2, probe carnitine (0.025 uM); read-out: Activity
[9] = molecular target: T2, OCTN2 (organic cation/carnitine transporter 2); assay: in vitro; settings: human, HRPE cells expressing OCTN2, probe carnitine (0.025 uM)
Description: (§3) TP_TRANSPORTER: inhibition of Carnitine uptake (Carnitine: 0.025 uM, Choline: 2000 uM) in OCTN2-expressing HRPE cells

[10] = molecular target: T3, OCTN2 (organic cation/carnitine transporter 2); assay: in vitro; settings: HRPE cells expressing OCTN2, probe carnitine (0.025 uM)
Description: as §3

[11] = molecular target: T2, OCTN2 (organic cation/carnitine transporter 2); assay: in vitro; settings: human, HRPE cells expressing OCTN2, probe carnitine (0.025 uM); remark: listed apart in the source
Description: TP_TRANSPORTER: inhibition of Carnitine uptake (Carnitine: 0.025 uM, Cimetidine: 2000 uM) in OCTN2-expressing HRPE cells

[12] = molecular target: T1, Organic cation/carnitine transporter 2; assay: TP_TRANSPORTER: inhibition of TEA uptake (TEA: 20 uM, Desipramine: 2500 uM) in OCTN2-expressing HRPE cells; assay type: functional, cell-based; settings: human
[13] = molecular target: T3, OCTN2 (organic cation/carnitine transporter 2); assay: TP_TRANSPORTER: inhibition of Carnitine uptake (Carnitine: 0.025 uM, Desipramine: 500 uM) in OCTN2-expressing HRPE cells; assay type: functional, cell-based; design: scale not given: the % may be the effect or the level left; settings: HRPE cells expressing OCTN2, probe carnitine (0.025 uM), read-out: Activity
[14] = molecular target: T1, Organic cation/carnitine transporter 2; assay: TP_TRANSPORTER: inhibition of TEA uptake (TEA: 20 uM, Guanidine: 2500 uM) in OCTN2-expressing HRPE cells; assay type: functional, cell-based; settings: human
[15] = molecular target: T1, Organic cation/carnitine transporter 2; assay: TP_TRANSPORTER: inhibition of TEA uptake (TEA: 20 uM, Methanphetamine: 2500 uM) in OCTN2-expressing HRPE cells; assay type: functional, cell-based; settings: human
[16] = molecular target: T1, Organic cation/carnitine transporter 2; assay: TP_TRANSPORTER: inhibition of TEA uptake (TEA: 20 uM, Norepinephrine: 2500 uM) in OCTN2-expressing HRPE cells; assay type: functional, cell-based; settings: human
[17] = molecular target: T1, Organic cation/carnitine transporter 2; assay: TP_TRANSPORTER: inhibition of TEA uptake (TEA: 20 uM, Procainamide: 2500 uM) in OCTN2-expressing HRPE cells; assay type: functional, cell-based; settings: human
[18] = molecular target: T4, Organic cation/carnitine transporter 2 (Homo sapiens, UniProt O76082); assay: as §2; assay type: functional, cell-based
T4 sequence (O76082 whole entry): T3 sequence (O76082 whole entry)

[19] = molecular target: T1, Organic cation/carnitine transporter 2; assay: TP_TRANSPORTER: inhibition of TEA uptake (TEA: 20 uM, Serotonin: 2500 uM) in OCTN2-expressing HRPE cells; assay type: functional, cell-based; settings: human
[20] = molecular target: T1, Organic cation/carnitine transporter 2; assay: TP_TRANSPORTER: inhibition of TEA uptake (TEA: 20 uM, THA: 2500 uM) in OCTN2-expressing HRPE cells; assay type: functional, cell-based; settings: human
[21] = molecular target: T1, Organic cation/carnitine transporter 2; assay: TP_TRANSPORTER: inhibition of TEA uptake (TEA: 20 uM, TMA: 2500 uM) in OCTN2-expressing HRPE cells; assay type: functional, cell-based; settings: human
[22] = molecular target: T2, OCTN2 (organic cation/carnitine transporter 2); assay: in vitro; settings: human, HRPE cells expressing OCTN2, probe carnitine (0.025 uM); remark: listed apart in the source
Description: (§4) TP_TRANSPORTER: inhibition of Carnitine uptake (Carnitine: 0.025 uM, TEA: 2000 uM) in OCTN2-expressing HRPE cells

[23] = molecular target: T3, OCTN2 (organic cation/carnitine transporter 2); assay: in vitro; settings: HRPE cells expressing OCTN2, probe carnitine (0.025 uM); remark: listed apart in the source
Description: as §4

[24] = substrate: C[N+](C)(C)CC(O)CC(=O)[O-]; assay: as §2; assay type: functional, cell-based
[25] = substrate: CC[N+](CC)(CC)CC; assay: cells, lysate or membranes named

## CN1CC=C(c2ccccc2)CC1
[1]
  Inhibition: inhibitor [50-75 % inhibition]
[2]
  activity at 2000 µM: 4%
[3]
  activity at 2000 µM: 47%

## C[n+]1ccc(-c2ccccc2)cc1
[4]
  Inhibition: inhibitor [50-75 % inhibition]

## CC(=O)O[C@H](CC(=O)[O-])C[N+](C)(C)C [ACETYLCARNITINE]
[5]
  activity at 500 µM: 1%
[6]
  Activity: substrate [+]

## CC(N)Cc1ccccc1 (stereo unspecified) [AMPHETAMINE]
[7]
  Inhibition: inhibitor [20-30 % inhibition]

## C[N+](C)(C)CC(=O)O [BETAINE]
[8]
  activity at 500 µM: 51%

## C[N+](C)(C)CCO [CHOLINE]
[9]
  activity at 2000 µM: 24%
[10]
  activity at 2000 µM: 82%

## CN/C(=N/CCSCc1nc[nH]c1C)NC#N [CIMETIDINE]
[11]
  activity at 2000 µM: 29%

## CNCCCN1c2ccccc2CCc2ccccc21 [DESIPRAMINE]
[12]
  Inhibition: inhibitor [90-95 % inhibition]
[13]
  activity at 500 µM: 0%

## N=C(N)N [GUANIDINE]
[14]
  Activity: is not an inhibitor [-]

## CN[C@@H](C)Cc1ccccc1 [METHAMPHETAMINE]
[15]
  Inhibition: inhibitor [20-30 % inhibition]

## NC[C@H](O)c1ccc(O)c(O)c1 [NOREPINEPHRINE]
[16]
  Activity: is not an inhibitor [-]

## CCN(CC)CCNC(=O)c1ccc(N)cc1 [PROCAINAMIDE]
[17]
  Inhibition: inhibitor [50-75 % inhibition]

## CCC(=O)OC(CC(=O)[O-])C[N+](C)(C)C (stereo unspecified) [Propionyl-Carnitine]
[6]
  Activity: substrate [+]
[18]
  Activity: substrate [+]

## NCCc1c[nH]c2ccc(O)cc12 [SEROTONIN]
[19]
  Activity: is not an inhibitor [-]

## CCCCCC[N+](CCCCCC)(CCCCCC)CCCCCC [TETRAHEXYLAMMONIUM]
[20]
  Inhibition: inhibitor [90-95 % inhibition]

## C[N+](C)(C)C.[Cl-] [TETRAMETHYLAMMONIUM]
[21]
  Inhibition: inhibitor [20-30 % inhibition]

## CC[N+](CC)(CC)CC [TETRYLAMMONIUM]
[22]
  activity at 2000 µM: 4%
[23]
  activity at 2000 µM: 40%

B1: Organic cation/carnitine transporter 2 (Rattus norvegicus) (protein)
chain: T1 sequence (O70594 whole entry)
[24]
  Km: 14.8 µM
[25]
  Km: 63 µM
